Source: PubChem BioAssay AID330 (DTP/NCI, 2004)
Values joined by “and” are separate entries in the source; they are usually repeats but may differ in a detail not shown here. Equal entries are not always repeated. Toxic doses and inconclusive results are not listed. Rule for the calls: active = survival T/C of 150% or more; inactive = T/C below 125% in these data.

Tested on: P388 leukemia ip, CD2F1 mice, survival T/C
Test: NCI In Vivo Anticancer Drug Screen. Data for tumor model P388 Leukemia (intraperitoneal) in CD2F1 (CDF1) mice
Settings: endpoint: median survival time, higher = longer survival
Summary of the method: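 Mice carrying the transplanted tumor received test compound or vehicle. Survival was recorded in each group, and the value is the treated-group measurement divided by that of the vehicle-treated control group.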

[1] = dose: 50.0 mg/kg/injection, schedule: Q01DX005 (ip), vehicle: saline with Tween-80
[2] = dose: 100.0 mg/kg/injection, schedule: Q01DX005 (ip), vehicle: saline with Tween-80
[3] = dose: 200.0 mg/kg/injection, schedule: Q01DX005 (ip), vehicle: saline with Tween-80
[4] = dose: 50.0 mg/kg/injection, schedule: Q01DX005 (ip), vehicle: Klucel (hydroxypropylcellulose) (HPC)
[5] = dose: 100.0 mg/kg/injection, schedule: Q01DX005 (ip), vehicle: Klucel (hydroxypropylcellulose) (HPC)
[6] = dose: 200.0 mg/kg/injection, schedule: Q01DX005 (ip), vehicle: Klucel (hydroxypropylcellulose) (HPC)

Measured: T/C

COc1ccccc1N=Cc1ccc(C=Nc2ccccc2OC)cc1
inactive: dose: 50.0 mg/kg/injection, schedule: Q01DX009 (ip), vehicle: Klucel (hydroxypropylcellulose) (HPC) 97 % of control | dose: 100.0 mg/kg/injection, schedule: Q01DX009 (ip), vehicle: Klucel (hydroxypropylcellulose) (HPC) 98 % of control | dose: 200.0 mg/kg/injection, schedule: Q01DX009 (ip), vehicle: Klucel (hydroxypropylcellulose) (HPC) 101 % of control and 88 % of control

CCOc1c(N=Nc2ccccc2O)c(C)nn1C(N)=S
inactive: dose: 3.75 mg/kg/injection, schedule: Q01DX005 (ip), vehicle: Klucel (hydroxypropylcellulose) (HPC) 103 % of control | dose: 7.5 mg/kg/injection, schedule: Q01DX005 (ip), vehicle: Klucel (hydroxypropylcellulose) (HPC) 102 % of control | dose: 15.0 mg/kg/injection, schedule: Q01DX005 (ip), vehicle: Klucel (hydroxypropylcellulose) (HPC) 104 % of control and 95 % of control

CC(=O)Nc1ccc(S(=O)(=O)Nc2ccc([N+](=O)[O-])cc2)cc1
inactive: dose: 100.0 mg/kg/injection, schedule: Q04DX003 (ip), vehicle: saline with Tween-80 90 % of control | dose: 200.0 mg/kg/injection, schedule: Q04DX003 (ip), vehicle: saline with Tween-80 86 % of control | dose: 400.0 mg/kg/injection, schedule: Q04DX003 (ip), vehicle: saline with Tween-80 100 % of control

COC(=O)c1cc(=O)n(-c2ccccc2F)c(SC)n1
inactive: dose: 25.0 mg/kg/injection, schedule: Q04DX003 (ip), vehicle: Klucel (hydroxypropylcellulose) (HPC) 105 % of control | dose: 50.0 mg/kg/injection, schedule: Q04DX003 (ip), vehicle: Klucel (hydroxypropylcellulose) (HPC) 104 % of control | dose: 100.0 mg/kg/injection, schedule: Q04DX003 (ip), vehicle: Klucel (hydroxypropylcellulose) (HPC) 106 % of control

c1ccc(C[N+]23CCC(CC2)C3c2ccccc2)cc1 (stereo not given)
inactive: dose: 3.75 mg/kg/injection, schedule: Q01DX005 (ip), vehicle: saline 103 % of control | dose: 7.5 mg/kg/injection, schedule: Q01DX005 (ip), vehicle: saline 103 % of control | dose: 15.0 mg/kg/injection, schedule: Q01DX005 (ip), vehicle: saline 104 % of control

CCOC(=O)C(=CNc1cccc(N(C)C)c1)C(=O)OCC
inactive: [1] 100 % of control | [2] 92 % of control | [3] 100 % of control

Oc1ccc(C(c2ccc(O)cc2)C(Cl)(Cl)Cl)cc1
inactive: dose: 50.0 mg/kg/injection, schedule: Q04DX003 (ip), vehicle: saline + Tween-80 + alcohol 104 % of control | dose: 100.0 mg/kg/injection, schedule: Q04DX003 (ip), vehicle: saline + Tween-80 + alcohol 101 % of control | dose: 200.0 mg/kg/injection, schedule: Q04DX003 (ip), vehicle: saline + Tween-80 + alcohol 103 % of control | dose: 400.0 mg/kg/injection, schedule: Q04DX003 (ip), vehicle: saline + Tween-80 + alcohol 111 % of control

O=C1c2ccccc2C(=O)N1/N=C/c1ccc(O)cc1
inactive: [4] 101 % of control | [5] 99 % of control | [6] 100 % of control

Clc1ccc(CN2CCCN(Cc3ccc(Cl)cc3)C2c2cc3ccccc3c3ccccc23)cc1
inactive: [1] 99 % of control | [2] 97 % of control | [3] 93 % of control

C/C(=N\N(C)/C=N/S(C)(=O)=O)c1ccccc1
inactive: [4] 98 % of control | [5] 95 % of control | [6] 104 % of control

CCC1C(=O)OCc2c1cc1n(c2=O)CCC1 (stereo not given)
inactive: dose: 50.0 mg/kg/injection, schedule: Q01DX001 (ip), vehicle: Klucel (hydroxypropylcellulose) (HPC) 123 % of control | dose: 100.0 mg/kg/injection, schedule: Q01DX001 (ip), vehicle: Klucel (hydroxypropylcellulose) (HPC) 106 % of control | dose: 200.0 mg/kg/injection, schedule: Q01DX001 (ip), vehicle: Klucel (hydroxypropylcellulose) (HPC) 100 % of control | dose: 400.0 mg/kg/injection, schedule: Q01DX001 (ip), vehicle: Klucel (hydroxypropylcellulose) (HPC) 108 % of control

O=C(Nc1cccnc1)c1ccc([N+](=O)[O-])s1
inactive: dose: 25.0 mg/kg/injection, schedule: Q01DX005 (ip), vehicle: saline 90 % of control | dose: 50.0 mg/kg/injection, schedule: Q01DX005 (ip), vehicle: saline 87 % of control | dose: 100.0 mg/kg/injection, schedule: Q01DX005 (ip), vehicle: saline 92 % of control | dose: 200.0 mg/kg/injection, schedule: Q01DX005 (ip), vehicle: saline 103 % of control | dose: 400.0 mg/kg/injection, schedule: Q01DX005 (ip), vehicle: saline 121 % of control
